Test results: patent EP1758924B1, “PEPTIDES ANTAGONISTS FOR […] SHOCK PROTEIN (HSP 16.3) OF MYCOBACTERIUM TUBERCULOSIS” (priority 2004, dated 2005)
Where “and” joins values, the source holds several entries; their conditions need not be identical. Equal entries are not always repeated. Residues, ends and D or L forms follow the SMILES beside them.

Legend:
Hsp16.3 [1] = target: T1, Hsp16.3 (Mycobacterium tuberculosis, UniProt P9WMK1); test: Peptide inhibition assay for Hsp16.3 chaperon activity (heat-induced ADH aggregation, A360); assay type: biochemical; details: for IC50: IC50 (concentration of peptide at which 50% inhibition of chaperon activity was observed), 5 µM ADH, 50°C, ADH:Hsp16.3 5:4, A360 at 1200 sec
From the text: The binding of a peptide need not necessarily result in inhibition. Inhibition will happen only if binding leads to significant changes in the active site. […] A part of the invention is the development of a peptide inhibition assay for Hsp16.3. The method is based on aggregation based assays. The standard assay used for assaying the activity of alpha-crystallin like proteins is to study the protection it confers against heat induced aggregation of proteins, the aggregation activity being measured spectrophotometrically. Yeast alcohol dehydrogenase (ADH), purchased from Sisco Research Laboratory, Mumbai, India, is used for aggregation studies. Aggregation of 5 µM ADH at 50°C can be measured as an apparent optical density at 360 nm using a spectrophotometer equipped with a thermostated cuvette holder in a total reaction volume of 500 µl. The chaperon activity of Hsp16.3 can be determined by mixing ADH with Hsp16.3 at a molar ratio of 5:4 which is equivalent to a ratio of about 12:1 between ADH and Hsp16.3 assuming a nonameric structure of Hsp16.3 as the functional unit (Chang et al., 1996) and aggregation rates again determined spectrophotometrically. Then the same experiment can be repeated in the presence of increasing concentrations of peptide inhibitors.
A part of the invention is the peptide inhibition assay for Hsp16.3 comprising of heat treating ADH alone, ADH + Hsp16.3 and ADH + Hsp16.3 + 25, 50 and 100 µM peptide. When ADH is heated it aggregates and there is an increase of optical density. In the presence of Hsp16.3 aggregation is prevented, but in the presence of peptide aggregation is again observed if Hsp16.3 activity is inhibited. Aggregation of 5 µM ADH at 50°C was measured as an apparent optical density at 360 nm using Hitachi spectrophotometer equipped with a thermostated cuvette holder in a total reaction volume of 500 µl. The chaperon activity of Hsp16.3 was determined by mixing ADH with Hsp16.3 at a molar ratio of 5:4 and aggregation rates were again determined spectrophotometrically. Then the same experiment was performed in the presence of increasing concentrations of the Hsp16.3 binding peptides (Seq IDs 10 and 22) (Figure 2).
Aggregation assays were performed by heating 5 µM Alcohol dehydrogenase (ADH) to 50°C directly in a spectrophotometer using a thermostated cuvette holder in a total reaction volume of 500 µl. Absorbance was monitored at 360 nm (A360) for 1200 seconds and readings were taken at every 100 seconds interval. When the A360 values were plotted against time (black triangle) it was observed that absorbance increased with time reaching near saturation level at the1200 sec time point. The increase in absorbance indicates aggregation of ADH. […] However the same effect may be obtained if the peptide instead of inhibiting the activity of Hsp16.3 promotes the aggregation of ADH. To eliminate such a possibility a control experiment was done in which the peptide alone was added to ADH.
To obtain a more quantitative interpretation of the data the % residual chaperon activity of Hsp 16.3 in the presence of different concentrations of inhibitor was derived as follows, the A360 values at the saturation point (1200 secs) being taken into consideration.
The % chaperon activity was then plotted against peptide concentration (Fig. 2B). From the resulting curve it is apparent that chaperon activity decreases exponentially with increasing concentration of peptide. […]

human alphaB-crystallin = target: T2, human alphaB-crystallin (Homo sapiens, UniProt P02511); test: ADH aggregation assay with alphaB-crystallin instead of Hsp16.3 (specificity); assay type: biochemical; details: 25, 50, 100 µM peptide; ADH:alphaB-crystallin 5:4
T2 construct: expression vector from Dr. W.C; Boelens, University of Nijmegen
T2 sequence (P02511 1-175): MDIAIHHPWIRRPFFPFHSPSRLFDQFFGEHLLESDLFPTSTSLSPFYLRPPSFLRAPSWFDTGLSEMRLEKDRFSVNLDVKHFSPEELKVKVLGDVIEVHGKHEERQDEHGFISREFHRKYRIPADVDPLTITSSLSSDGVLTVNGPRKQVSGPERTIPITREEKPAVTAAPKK

Hsp16.3 [2] = target: T1, Hsp16.3; test: biochemical; assay type: binding; details: fluoresceinated peptide 200 nM, 50 mM sodium phosphate buffer, pH 7.5, 300 mM NaCl, 25°C, single-site fit
Hsp16.3 [3] = target: T1, Hsp16.3; test: NMR (TOCSY) comparison of amide proton chemical shifts of free peptide and peptide with Hsp16.3; assay type: binding; details: 0.1 mM protein, 2 mM peptide, 20 mM sodium phosphate pH 7.0, 250 mM NaCl, 4°C
Protocol: All NMR spectra were taken in a Bruker DRX-500 NMR spectrometer equipped with a Z-field gradient probe. All measurements were done in high precision 5-mm NMR tubes in 20 mM sodium phosphate buffer, pH 7.0, containing 250 mM NaCl in 90% H2O and 10% D2O. All NMR experiments were done at 4°C, unless stated otherwise. TOCSY spectra were measured using standard pulse sequences in the Bruker pulse library using WATERGATE water suppression method. Standard Bruker software (Xwin-NMR version 1.3) was used to acquire and process the NMR data. The NMR samples were adjusted to a protein concentration of 0.1 mM and a 20-fold ligand excess (2 mM) over binding sites was used throughout the studies.
The comparison of chemical shifts of amide protons of free peptide (Seq ID 10) (A) and peptide with Hsp16.3 protein (B). Resonance assignments are indicated with a one-letter amino acid code. All NMR spectra were taken in a Bruker DRX-500 spectrometer equipped with a Z-field gradient probe. All measurements were done in high precision 5-mm NMR tubes in 20 mM sodium phosphate buffer, pH 7.0, containing 250 mM NaCl in 90% H2O and 10% D2O at 4°C. TOCSY spectra were measured using standard pulse sequences in the Bruker pulse library using WATERGATE water suppression method. Standard Bruker software (Xwin-NMR version 1.3) was used to acquire and process the NMR data. […]

T1 sequence (P9WMK1 whole entry, looked up): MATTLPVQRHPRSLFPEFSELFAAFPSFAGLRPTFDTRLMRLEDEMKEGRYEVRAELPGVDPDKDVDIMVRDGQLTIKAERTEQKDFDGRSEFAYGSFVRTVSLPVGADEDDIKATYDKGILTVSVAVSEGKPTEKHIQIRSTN

| Compound | aggregation restored (Hsp16.3 [1]; 100 µM peptide, A360 at saturation point, ADH:Hsp16.3 5:4) [%] | inhibition of chaperon activity of Hsp16.3 (Hsp16.3 [1]; 25, 50 and 100 µM peptide) | influence of peptide alone on aggregation of ADH (only peptide control) (Hsp16.3 [1]; ADH + 100 µM peptide, no Hsp16.3) | IC50 (Hsp16.3 [1]) | inhibition of chaperon activity of alphaB-crystallin (human alphaB-crystallin) | Kd (Hsp16.3 [2]) | chemical shift of amide protons on addition of Hsp16.3 (Hsp16.3 [3]) |
| --- | --- | --- | --- | --- | --- | --- | --- |
| CSCC[C@H](NC(=O)[C@@H](N)CCCCN)C(=O)N[C@@H](Cc1c[nH]cn1)C(=O)N[C@@H](C)C(=O)N[C@H](C(=O)N[C@@H](CC(N)=O)C(=O)N[C@@H](Cc1c[nH]cn1)C(=O)NCC(=O)NCC(=O)NCC(=O)N[C@@H](CO)C(N)=O)[C@@H](C)O [Seq ID 10, Lys-Met-His-Ala-Thr-Asn-His-Gly-Gly-Gly-Ser] (H-KMHATNHGGGS-NH2) | ~70 | dose dependent inhibition | does not influence the aggregation of ADH | 47 µM and ~47 µM | no inhibition | ~50 µM and 50 µM | significant chemical shift occured in both histidines |
| CC[C@H](C)[C@H](NC(=O)[C@@H]1CCCN1C(=O)[C@@H](NC(=O)[C@H](Cc1c[nH]cn1)NC(=O)[C@H](CCCNC(=N)N)NC(=O)[C@H](Cc1c[nH]cn1)NC(=O)[C@H](CCCCN)NC(=O)[C@H](Cc1ccccc1)NC(=O)[C@H](Cc1c[nH]cn1)NC(=O)[C@H](Cc1c[nH]cn1)NC(=O)[C@@H]1CCCN1C(=O)[C@@H](N)Cc1ccc(O)cc1)[C@@H](C)CC)C(=O)NCC(=O)NCC(=O)NCC(=O)N[C@@H](CO)C(N)=O [Seq ID 22, Tyr-Pro-His-His-Phe-Lys-His-Arg-His-Ile-Pro-Ile-Gly-Gly-Gly-Ser] (H-YPHHFKHRHIPIGGGS-NH2) | – | – | – | 57 µM and 52 µM | – | ~40 µM and 40 µM | – |
